Columns and labels:
Type in all cases: in vivo
Details in all cases: evaluated after 13 days
[1] = tested on: Echinochloa crus-galh (ECHCG); experiment: Post-emergence herbicidal glasshouse test (Table B1)
Summary of the method: (§1)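 Pre: spray 1 d after sowing; post: spray after 8 d growth. Rate 500 g/h (default); vehicle acetone/water 50:50, 0.5% Tween 20. Glasshouse 24/16° C, 14 h light, 65% humidity. Readout % damage at 13 d, 5-point scale.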

[2] = tested on: Abutilon theophrasti (ABUTH); experiment: as above
Summary of the method: as §1

[3] = tested on: Ipomoea hederacea (IPOHE); experiment: as above
Summary of the method: as §1

[4] = tested on: Amaranthus retoflexus (AMARE); experiment: as above
Summary of the method: as §1

[5] = tested on: Setaria faberi (SETFA); experiment: as above
Summary of the method: as §1

[6] = tested on: Echinochloa crus-galh (ECHCG); experiment: Pre-emergence herbicidal glasshouse test (Table B1)
Summary of the method: as §1

[7] = tested on: Abutilon theophrasti (ABUTH); experiment: as above
Summary of the method: as §1

[8] = tested on: Ipomoea hederacea (IPOHE); experiment: as above
Summary of the method: as §1

[9] = tested on: Amaranthus retoflexus (AMARE); experiment: as above
Summary of the method: as §1

[10] = tested on: Setaria faberi (SETFA); experiment: as above
Summary of the method: as §1

Structure (SMILES)	POST Application ECHCG, percentage damage on five-point scale ([1]; applied at 500 g/h)	POST Application ABUTH, percentage damage on five-point scale ([2]; applied at 500 g/h)	POST Application IPOHE, percentage damage on five-point scale ([3]; applied at 500 g/h)	POST Application AMARE, percentage damage on five-point scale ([4]; applied at 500 g/h)	POST Application SETFA, percentage damage on five-point scale ([5]; applied at 500 g/h)	PRE Application ECHCG, percentage damage on five-point scale ([6]; applied at 500 g/h)	PRE Application ABUTH, percentage damage on five-point scale ([7]; applied at 500 g/h)	PRE Application IPOHE, percentage damage on five-point scale ([8]; applied)	PRE Application AMARE, percentage damage on five-point scale ([9]; applied at 500 g/h)	PRE Application SETFA, percentage damage on five-point scale ([10]; applied at 500 g/h)	POST Application ECHCG, percentage damage on five-point scale ([1]; applied at 125 g/ha)	POST Application ABUTH, percentage damage on five-point scale ([2]; applied at 125 g/ha)	POST Application IPOHE, percentage damage on five-point scale ([3]; applied at 125 g/ha)	POST Application AMARE, percentage damage on five-point scale ([4]; applied at 125 g/ha)	POST Application SETFA, percentage damage on five-point scale ([5]; applied at 125 g/ha)	PRE Application ECHCG, percentage damage on five-point scale ([6]; applied at 125 g/ha)	PRE Application ABUTH, percentage damage on five-point scale ([7]; applied at 125 g/ha)	PRE Application IPOHE, percentage damage on five-point scale ([8]; applied at 125 g/ha)	PRE Application AMARE, percentage damage on five-point scale ([9]; applied at 125 g/ha)	PRE Application SETFA, percentage damage on five-point scale ([10]; applied at 125 g/ha)
CCn1nnnc1NC(=O)c1ccc(OC(F)(F)F)c(NC(=O)C2CCC2)c1Cl [Compound 1.111]	5 (5=80-100%)	5 (5=80-100%)	5 (5=80-100%)	5 (5=80-100%)	1 (1=0-19%)	4 (4=60-79%)	4 (4=60-79%)	1 (1=0-19%)	5 (5=80-100%)	1 (1=0-19%)	–	–	–	–	–	–	–	–	–	–
Cn1nnnc1NC(=O)c1ccc(OC(F)(F)F)c(NC(=O)C2CCC2)c1Cl [Compound 1.112]	5 (5=80-100%)	5 (5=80-100%)	5 (5=80-100%)	5 (5=80-100%)	5 (5=80-100%)	5 (5=80-100%)	4 (4=60-79%)	1 (1=0-19%)	5 (5=80-100%)	1 (1=0-19%)	–	–	–	–	–	–	–	–	–	–
CCn1nnnc1NC(=O)c1ccc(OC(F)(F)F)c(NC(=O)CCOC)c1Cl [Compound 1.113]	5 (5=80-100%)	5 (5=80-100%)	5 (5=80-100%)	5 (5=80-100%)	5 (5=80-100%)	5 (5=80-100%)	5 (5=80-100%)	1 (1=0-19%)	5 (5=80-100%)	2 (2=20-39%)	–	–	–	–	–	–	–	–	–	–
CCCC(=O)Nc1c(OC(F)(F)F)ccc(C(=O)Nc2nnnn2CC)c1Cl [Compound 1.114]	5 (5=80-100%)	5 (5=80-100%)	5 (5=80-100%)	5 (5=80-100%)	5 (5=80-100%)	5 (5=80-100%)	5 (5=80-100%)	3 (3=40-59%)	5 (5=80-100%)	2 (2=20-39%)	–	–	–	–	–	–	–	–	–	–
Cc1nnc(NC(=O)c2ccc(OC(F)(F)F)c(NC(=O)C3CC3)c2Cl)o1 [Compound 1.115]	–	–	–	–	–	–	–	–	–	–	4 (4=60-79%)	4 (4=60-79%)	4 (4=60-79%)	3 (3=40-59%)	4 (4=60-79%)	5 (5=80-100%)	4 (4=60-79%)	2 (2=20-39%)	4 (4=60-79%)	4 (4=60-79%)
CCn1nnnc1NC(=O)c1ccc(OC(F)(F)F)c(NC(=O)COC)c1Cl [Compound 1.116]	5 (5=80-100%)	5 (5=80-100%)	5 (5=80-100%)	5 (5=80-100%)	5 (5=80-100%)	3 (3=40-59%)	5 (5=80-100%)	1 (1=0-19%)	5 (5=80-100%)	1 (1=0-19%)	–	–	–	–	–	–	–	–	–	–

From patent publication US20230219904A1 (SYNGENTA CROP PROTECTION AG, priority 2020, published 2023)
